Measured values taken from patent publication US8093248B2, “Compounds useful for the treatment of conditions associated with weight gain” (AstraZeneca AB (PUBL), priority 2007, dated 2012).

Tests used:
JEG-3 cells [1] = assay: [3H]-thymidine incorporation in JEG-3 cells (JEG-3 protocol); type: cell-based; settings: JEG-3 choriocarcinoma cell line, FIG. 6
Protocol: In JEG-3 cells (choriocarcinoma cell line) leptin is able to stimulate proliferation up to 3 fold (Biol. Reprod. (2007) 76: 203-10). […] The radioactivity incorporated by the cells is an index of their proliferative activity and is measured in counts per minute (CPM) with a liquid scintillation beta counter.
This finding can be applied to test whether a compound is able to either reproduce the effect of leptin on cell proliferation (leptin receptor agonist mimetic) (i.e., a given compound will cause an increase in incorporated [^3H]-Thymidine by the cells) or to inhibit the effect of leptin (antagonistic effect) by preventing the leptin-mediated increase in [^3H]-thymidine incorporation.

JEG-3 cells [2] = settings: Biol. Reprod. (2007) 76: 203-10; cited from earlier work

In the case of “leptin: hormone synthesized in fat cells that is believed to act in the hypothalamus to reduce food intake and body weight”, the “concentration of maximal effect on [3H]-thymidine incorporation” value (JEG-3 cells [1]) is listed as 100 nM, the EC50 (JEG-3 cells [1]; read-out: EC50 of concentration-dependent increase in [3H]-thymidine incorporation) is listed as 2.1 nM and the stimulation of proliferation (JEG-3 cells [2]) is listed as “up to 3 fold”.
